These results are taken from patent US12461089B2, “Olfactory receptor involved in the perception of musk fragrance and the use thereof” (ChemoSensoryX Biosciences SA, priority 2017, dated 2025).

Positions count from the first letter of the chain named. Read-outs that look alike come from different tables or passages of the source.

Holding throughout (type): cell-based
One experiment has as its target T1, OR5AN1 (Homo sapiens, UniProt Q8NGI8, E89G).
T1 construct: expressed in transfected cells; host or cells: HEK293T-RTP1A1/RTP2
T1 sequence (Q8NGI8 1-311 E89G): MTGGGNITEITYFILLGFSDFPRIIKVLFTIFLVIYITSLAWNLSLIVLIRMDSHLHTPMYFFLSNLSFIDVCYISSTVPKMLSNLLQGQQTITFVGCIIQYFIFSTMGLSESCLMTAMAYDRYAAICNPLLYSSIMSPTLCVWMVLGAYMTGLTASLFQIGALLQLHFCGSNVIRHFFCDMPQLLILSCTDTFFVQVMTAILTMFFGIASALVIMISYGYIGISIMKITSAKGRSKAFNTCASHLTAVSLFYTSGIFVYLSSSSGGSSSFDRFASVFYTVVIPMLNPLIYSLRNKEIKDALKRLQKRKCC
As to the kind of experiment: Luciferase reporter concentration-response analysis on OR5AN1.

The target in a further experiment is T2, OR5A2_variant 1 (Homo sapiens, UniProt Q8NGI9).
T2 construct: expressed in transfected cells; host or cells: HEK293T-RTP1A1/RTP2
T2 sequence (Q8NGI9 1-324): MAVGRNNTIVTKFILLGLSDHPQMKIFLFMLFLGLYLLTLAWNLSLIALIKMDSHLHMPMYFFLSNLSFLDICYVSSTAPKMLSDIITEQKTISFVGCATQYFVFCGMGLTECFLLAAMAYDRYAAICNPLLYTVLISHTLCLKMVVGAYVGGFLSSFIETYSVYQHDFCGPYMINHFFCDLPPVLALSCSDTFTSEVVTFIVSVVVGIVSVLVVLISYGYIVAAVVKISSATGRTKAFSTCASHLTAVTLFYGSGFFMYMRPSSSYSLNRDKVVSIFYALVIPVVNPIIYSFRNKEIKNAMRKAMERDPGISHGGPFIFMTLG
As to the kind of experiment: Luciferase reporter concentration-response analysis on OR5A2_variant 1. As to conditions: for activation of OR5A2 (OR5A2_variant 1), concentration-response: CRE-luciferase, semi-logarithmic serial dilutions, empty vector pEFIBRHO as control.

The target of a further experiment is T3, OR5A2_variant 2 (Homo sapiens, UniProt Q8NGI9, P172L).
T3 construct: (P172L, OR5A2_variant 2); expressed in transfected cells; host or cells: HEK293T-RTP1A1/RTP2
T3 sequence (Q8NGI9 1-324 P172L): T2 sequence (Q8NGI9 1-324) with P172L
Kind of experiment: Luciferase reporter concentration-response analysis on haplotype OR5A2_variant 2 (P172L). As to conditions: CRE-luciferase; empty vector pEFIBRHO as control. The protocol:
HEK293T-RTP1A1/RTP2 cells were maintained in minimal essential medium (EMEM, Lonza) containing 10% fetal bovine serum (M10). These cells were generated by transfecting HEK293T with an expression vector containing the sequences of the chaperone proteins RTP1A1 and RTP2 and a resistance gene to puromycin, using Lipofectamine 2000.
Odorant molecules were diluted at a concentration of 1 mole/liter (M) into dimethyl sulfoxide (DMSO) to generate stock solutions.
For concentration-response analysis, serial dilutions of the tested molecules were prepared from stock solutions in EMEM plated into 96-well plates.
For the initial deorphanisation screening and dose-response analysis, a Luciferase-based gene reporter assay (Promega, Leiden, The Nederlands) was used. Briefly, cells were platted on Poly-D-lysine-coated 96-well and transfected with a plasmid containing the CRE-luciferase and a plasmid containing the olfactory receptor. Sixteen hours after transfection, the culture medium was replaced by serum-free EMEM containing the tested compounds at a determined concentration. After four hours of incubation at 37° C. degree, cells were lysed and processed for luminescence measurement. Luminescene emission was recorded. Results were expressed as luciferase activity (Relative […] Unit (RLU)) or as percentage of the response induced by 10 μM of the adenylate cyclase activator Forskolin. An empty plasmid is used as negative control.
OR genes are highly variable, with many alleles resulting in differences in smell perception from person to person. These differences can be attributed to genetic variations like, for example, nucleotide polymorphisms. […] Amino acids alignment of the 2 haplotypes are represented in FIG. 4.
To test if the substitution could impact the musk sensitivity, luciferase assays were performed as described previously after transfection of both OR5A2 variants. Cells were treated with semi-logarithmic serial dilutions of musk compounds from the four structurally different groups described earlier. In each experiment, an empty vector was used as negative control (pEFIBRHO).

Setting [1] is: concentration-response analysis, luciferase reporter, values given as negative (log) numbers, Non Active = no activation after testing, read-out: calculated EC50, OR5AN1 (converted).
The mark [2] stands for this setting: concentration-response analysis, luciferase reporter, values given as negative (log) numbers, read-out: calculated EC50, OR5A2 (converted).

As for `CC(=O)c1c(C)c([N+](=O)[O-])c(C(C)(C)C)c([N+](=O)[O-])c1C` [Musk Ketone, 4-tert-butyl-2,6-dimethyl-3,5-dinitroacetophenone], the EC50 on OR5AN1 (setting [1]) is 288 nM; at OR5A2_variant 1 (setting [2]), 107 µM. Further, on OR5A2_variant 1, the “activation of OR5A2 (OR5A2_variant 1), concentration-response” value is given as “shows dose response curves”. The “activation of OR5A2_variant 2 (P172L), concentration-response” value (shortened to “activation of OR5A2_variant 2 (P172L)”) at OR5A2_variant 2 is listed as “not activated”.

For the compound `Cc1c([N+](=O)[O-])c(C)c([N+](=O)[O-])c(C(C)(C)C)c1[N+](=O)[O-]` [Musk Xylene, 1-tert-butyl-3,5-dimethyl-2,4,6-trinitrobenzene], the figures for the EC50 on OR5AN1 and on OR5A2_variant 1 were 661 nM and 1.86 µM, respectively. The “activation of OR5A2 (OR5A2_variant 1), concentration-response” value at OR5A2_variant 1 is “shows dose response curves”. Moreover, at OR5A2_variant 2, the “activation of OR5A2_variant 2 (P172L)” value is “not activated”.

Regarding `O=C1CCC/C=C\CCCCCCCCCC1` [Velvione], the figures for the EC50 on OR5AN1 (setting [1]) and on OR5A2_variant 1 (setting [2]) were 49000 nM and 28.8 µM, respectively. Moreover, the “activation of OR5A2 (OR5A2_variant 1), concentration-response” value at OR5A2_variant 1 was “shows dose response curves”. At OR5A2_variant 2, the “activation of OR5A2_variant 2 (P172L)” value was “not activated”.
